# Results published in PMC5218480 (PLoS ONE, 2017).
# Tested on: MV-4-11 cells
# Assay: Gene expression microarray analysis (Affymetrix PrimeView) and GSEA
# Format: cell-based, human
# Parameters: RFU PODN (11730768_x_at) / Fold change /veh PODN (11730768_x_at) / RFU LINC00158 (11744669_a_at) / Fold change /veh LINC00158 (11744669_a_at) / RFU DUSP10 (11751237_a_at) / Fold change /veh DUSP10 (11751237_a_at) / RFU ID3 (11757404_x_at) / Fold change /veh ID3 (11757404_x_at) / RFU PLEKHG5 (11737974_s_at) / Fold change /veh PLEKHG5 (11737974_s_at) / RFU LRRC4B (11730491_at) / Fold change /veh LRRC4B (11730491_at) / RFU GIMAP4 (11747438_a_at) / Fold change /veh GIMAP4 (11747438_a_at) / RFU KRT8 (11758183_x_at) / Fold change /veh KRT8 (11758183_x_at) / RFU CNN1 (11734310_a_at) / Fold change /veh CNN1 (11734310_a_at) / RFU VPS37D (11726825_at) / Fold change /veh VPS37D (11726825_at) / RFU C10orf10 (11716522_x_at) / Fold change /veh C10orf10 (11716522_x_at) / RFU KIR2DL2 /// KIR2DL4 /// KIR2DL5A /// KIR2DL5B /// KIR2DS1 /// KIR2DS2 /// KIR2DS3 /// KIR2DS4 /// KIR3DL3 /// KIR3DL3 /// KIR3DS1 (11738374_at) / Fold change /veh KIR2DL2 /// KIR2DL4 /// KIR2DL5A /// KIR2DL5B /// KIR2DS1 /// KIR2DS2 /// KIR2DS3 /// KIR2DS4 /// KIR3DL3 /// KIR3DL3 /// KIR3DS1 (11738374_at) / RFU C1QL1 (11718748_at) / Fold change /veh C1QL1 (11718748_at) / RFU TMPRSS4 (11747572_a_at) / Fold change /veh TMPRSS4 (11747572_a_at) / RFU HAMP (11756126_x_at) / Fold change /veh HAMP (11756126_x_at) / RFU RNFT2 (11725882_a_at) / Fold change /veh RNFT2 (11725882_a_at) / RFU NR4A2 (11747474_a_at) / Fold change /veh NR4A2 (11747474_a_at) / RFU ABCC12 (11746883_a_at) / Fold change /veh ABCC12 (11746883_a_at) / RFU TMEM136 (11760407_x_at) / Fold change /veh TMEM136 (11760407_x_at) / RFU CLDN22 /// WWC2 (11732394_at) / Fold change /veh CLDN22 /// WWC2 (11732394_at) / RFU HLA-DPB1 (11760878_x_at) / Fold change /veh HLA-DPB1 (11760878_x_at) / RFU SPINT1 (11716480_a_at) / Fold change /veh SPINT1 (11716480_a_at) / RFU GAP43 (11754022_s_at) / Fold change /veh GAP43 (11754022_s_at) / RFU A4GNT (11735810_at) / Fold change /veh A4GNT (11735810_at) / RFU PRB3 (11715151_x_at) / Fold change /veh PRB3 (11715151_x_at) / RFU TUBB4B (11761932_at) / Fold change /veh TUBB4B (11761932_at) / RFU CAPN14 (11732068_a_at) / Fold change /veh CAPN14 (11732068_a_at) / RFU TMCC2 (11721928_a_at) / Fold change /veh TMCC2 (11721928_a_at) / RFU IRGQ (11745062_a_at) / Fold change /veh IRGQ (11745062_a_at) / RFU FAM174B (11720279_a_at) / Fold change /veh FAM174B (11720279_a_at) / RFU TMPRSS4 (11748680_a_at) / Fold change /veh TMPRSS4 (11748680_a_at) / RFU FAM212B (11763350_a_at) / Fold change /veh FAM212B (11763350_a_at) / RFU PLEKHG5 (11743358_a_at) / Fold change /veh PLEKHG5 (11743358_a_at) / RFU ZSCAN30 (11745921_a_at) / Fold change /veh ZSCAN30 (11745921_a_at) / RFU CMKLR1 (11741424_a_at) / Fold change /veh CMKLR1 (11741424_a_at) / RFU LOC101060620 /// MAPK8IP1 (11723275_at) / Fold change /veh LOC101060620 /// MAPK8IP1 (11723275_at) / RFU SPTSSB (11747773_x_at) / Fold change /veh SPTSSB (11747773_x_at) / RFU PRSS12 (11739890_at) / Fold change /veh PRSS12 (11739890_at) / RFU BIN1 (11741810_x_at) / Fold change /veh BIN1 (11741810_x_at) / RFU WNT11 (11732464_a_at) / Fold change /veh WNT11 (11732464_a_at) / RFU C10orf10 (11716521_a_at) / Fold change /veh C10orf10 (11716521_a_at) / RFU C5orf56 (11738089_at) / Fold change /veh C5orf56 (11738089_at) / RFU CYB561 (11721691_x_at) / Fold change /veh CYB561 (11721691_x_at) / RFU ANKRD19P (11752326_a_at) / Fold change /veh ANKRD19P (11752326_a_at) / RFU OR2T12 /// OR2T33 /// OR2T8 (11738714_s_at) / Fold change /veh OR2T12 /// OR2T33 /// OR2T8 (11738714_s_at) / RFU VCAN (11748164_a_at) / Fold change /veh VCAN (11748164_a_at) / RFU JSRP1 (11732532_at) / Fold change /veh JSRP1 (11732532_at) / RFU KRTAP10-11 (11738290_x_at) / Fold change /veh KRTAP10-11 (11738290_x_at) / RFU MYO3A (11730013_a_at) / Fold change /veh MYO3A (11730013_a_at) / RFU EBF3 (11725865_a_at) / Fold change /veh EBF3 (11725865_a_at) / RFU CAMK2N1 (11719241_x_at) / Fold change /veh CAMK2N1 (11719241_x_at) / RFU C5orf56 (11738088_a_at) / Fold change /veh C5orf56 (11738088_a_at) / RFU OLFML3 (11715873_a_at) / Fold change /veh OLFML3 (11715873_a_at) / RFU LOC100653217 /// NTM (11731650_a_at) / Fold change /veh LOC100653217 /// NTM (11731650_a_at) / RFU MAPK11 (11762145_a_at) / Fold change /veh MAPK11 (11762145_a_at) / RFU FIZ1 (11724087_x_at) / Fold change /veh FIZ1 (11724087_x_at) / RFU OASL (11726364_x_at) / Fold change /veh OASL (11726364_x_at) / RFU SOX15 (11748057_x_at) / Fold change /veh SOX15 (11748057_x_at) / RFU CD79A (11719716_a_at) / Fold change /veh CD79A (11719716_a_at) / RFU HIST1H1D (11736915_at) / Fold change /veh HIST1H1D (11736915_at) / RFU CASKIN2 (11723855_a_at) / Fold change /veh CASKIN2 (11723855_a_at) / RFU LOC730098 (11760151_x_at) / Fold change /veh LOC730098 (11760151_x_at) / RFU OR4N2 (11742367_at) / Fold change /veh OR4N2 (11742367_at) / RFU PRRT2 (11749266_a_at) / Fold change /veh PRRT2 (11749266_a_at) / RFU SNX32 (11753110_a_at) / Fold change /veh SNX32 (11753110_a_at) / RFU CDHR5 (11726645_a_at) / Fold change /veh CDHR5 (11726645_a_at) / RFU RCAN1 (11760418_a_at) / Fold change /veh RCAN1 (11760418_a_at) / RFU FAM167A (11723789_a_at) / Fold change /veh FAM167A (11723789_a_at) / RFU FAM26E (11764081_at) / Fold change /veh FAM26E (11764081_at) / RFU ISYNA1 (11749810_s_at) / Fold change /veh ISYNA1 (11749810_s_at) / RFU ACY1 (11761880_at) / Fold change /veh ACY1 (11761880_at) / RFU 11764098_at / Fold change /veh 11764098_at / RFU SAMD14 (11745864_x_at) / Fold change /veh SAMD14 (11745864_x_at) / RFU NPB (11741838_a_at) / Fold change /veh NPB (11741838_a_at) / RFU TMPRSS6 (11731388_a_at) / Fold change /veh TMPRSS6 (11731388_a_at) / RFU KRTAP10-2 (11738614_at) / Fold change /veh KRTAP10-2 (11738614_at) / RFU ARHGAP8 /// PRR5-ARHGAP8 (11727945_x_at) / Fold change /veh ARHGAP8 /// PRR5-ARHGAP8 (11727945_x_at) / RFU KRTAP5-7 /// NADSYN1 (11734609_at) / Fold change /veh KRTAP5-7 /// NADSYN1 (11734609_at) / RFU RASL12 (11751679_a_at) / Fold change /veh RASL12 (11751679_a_at) / RFU CDKN2B (11736163_a_at) / Fold change /veh CDKN2B (11736163_a_at) / RFU PRF1 (11729649_at) / Fold change /veh PRF1 (11729649_at) / RFU, ZNF638 /// ZNF638-IT1 / Fold change vs veh, ZNF638 /// ZNF638-IT1 / RFU, PANK3 / Fold change vs veh, PANK3 / RFU, SH3YL1 / Fold change vs veh, SH3YL1 / RFU, ZEB2 / Fold change vs veh, ZEB2 / RFU, NRIP1 / Fold change vs veh, NRIP1 / RFU, PTTG1IP / Fold change vs veh, PTTG1IP / RFU, CAPN2 / Fold change vs veh, CAPN2 / RFU, MED14 / Fold change vs veh, MED14 / RFU, SNORA58 / Fold change vs veh, SNORA58 / RFU, C1orf63 / Fold change vs veh, C1orf63 / RFU, LRRFIP1 / Fold change vs veh, LRRFIP1 / RFU, NDUFAF7 / Fold change vs veh, NDUFAF7 / RFU, SLC12A2 / Fold change vs veh, SLC12A2 / RFU, IBTK / Fold change vs veh, IBTK / RFU, ESF1 / Fold change vs veh, ESF1 / Fold change vs veh, TMEM50B / RFU, TAOK1 / Fold change vs veh, TAOK1 / RFU, ACBD3 / Fold change vs veh, ACBD3 / RFU, TMA16 / Fold change vs veh, TMA16 / RFU, RWDD3 / Fold change vs veh, RWDD3 / RFU, BCAT1 / Fold change vs veh, BCAT1 / RFU, EDEM3 / Fold change vs veh, EDEM3 / RFU, TMEM33 / Fold change vs veh, TMEM33 / RFU, WDR75 / Fold change vs veh, WDR75 / RFU, AHCTF1 / Fold change vs veh, AHCTF1 / RFU, TFRC / Fold change vs veh, TFRC / RFU, ZDHHC17 / Fold change vs veh, ZDHHC17 / RFU, NOM1 / Fold change vs veh, NOM1 / RFU, ARL8B / Fold change vs veh, ARL8B / RFU, ZBTB11 / Fold change vs veh, ZBTB11 / RFU, TAMM41 / Fold change vs veh, TAMM41 / RFU, KIAA1704 /// LOC100996395 / Fold change vs veh, KIAA1704 /// LOC100996395 / RFU, ING1 / Fold change vs veh, ING1 / RFU, TRMT61B / Fold change vs veh, TRMT61B / RFU, FUBP3 / Fold change vs veh, FUBP3 / RFU, TP53 / Fold change vs veh, TP53 / RFU, TNKS2 / Fold change vs veh, TNKS2 / RFU, ZFP14 / Fold change vs veh, ZFP14 / RFU, ACTR2 / Fold change vs veh, ACTR2 / RFU, PPP3R1 / Fold change vs veh, PPP3R1 / RFU, PIK3R1 / Fold change vs veh, PIK3R1 / RFU, HNRNPA1 / Fold change vs veh, HNRNPA1 / RFU, RNF170 / Fold change vs veh, RNF170 / RFU, ZNF28 / Fold change vs veh, ZNF28 / RFU, RNGTT / Fold change vs veh, RNGTT / RFU, OGT / Fold change vs veh, OGT / RFU, BRD1 / Fold change vs veh, BRD1 / RFU, MARS / Fold change vs veh, MARS / RFU, ZNF655 / Fold change vs veh, ZNF655 / RFU, FAHD1 / Fold change vs veh, FAHD1 / RFU, BDP1 / Fold change vs veh, BDP1 / RFU, LRRCC1 / Fold change vs veh, LRRCC1 / RFU, ARID1A / Fold change vs veh, ARID1A / RFU, ZNF146 / Fold change vs veh, ZNF146 / RFU, ZNF330 / Fold change vs veh, ZNF330 / RFU, GPN3 / Fold change vs veh, GPN3 / RFU, C9orf123 / Fold change vs veh, C9orf123 / RFU, N4BP2L2 / Fold change vs veh, N4BP2L2 / RFU, ARFIP1 / Fold change vs veh, ARFIP1 / RFU, FAM179B / Fold change vs veh, FAM179B / RFU, BCL10 / Fold change vs veh, BCL10 / RFU, UHRF1BP1L / Fold change vs veh, UHRF1BP1L / RFU, BET1 / Fold change vs veh, BET1 / RFU, CNOT2 / Fold change vs veh, CNOT2 / RFU, ZNF268 / Fold change vs veh, ZNF268 / Fold change vs veh, ZNF507 / RFU, DGCR2 / Fold change vs veh, DGCR2 / RFU, WDSUB1 / Fold change vs veh, WDSUB1 / Fold change vs veh, HSP90B1 /// MIR3652 / RFU, ADSS / Fold change vs veh, ADSS / RFU, GK / Fold change vs veh, GK / RFU, ZNF148 / Fold change vs veh, ZNF148 / RFU, TAF9 / Fold change vs veh, TAF9 / RFU, SLC1A5 / Fold change vs veh, SLC1A5 / RFU, SLMO2 / Fold change vs veh, SLMO2 / RFU, ABCC4 / Fold change vs veh, ABCC4 / RFU, LOC101060439 /// RAP1B / Fold change vs veh, LOC101060439 /// RAP1B / RFU, RFX7 / Fold change vs veh, RFX7 / RFU, GTPBP10 / Fold change vs veh, GTPBP10 / RFU, CNEP1R1 / Fold change vs veh, CNEP1R1 / RFU, BIVM-ERCC5 /// ERCC5 / Fold change vs veh, BIVM-ERCC5 /// ERCC5 / RFU, ILF3 / Fold change vs veh, ILF3 / RFU 11762660_at / Fold change /veh 11762660_at / RFU VCAN (11757783_s_at) / Fold change /veh VCAN (11757783_s_at) / RFU DDX43 (11728927_at) / Fold change /veh DDX43 (11728927_at) / RFU KRT8 (11758188_x_at) / Fold change /veh KRT8 (11758188_x_at) / RFU NKD1 (11759106_at) / Fold change /veh NKD1 (11759106_at) / RFU SRD5A1 (11742802_a_at) / Fold change /veh SRD5A1 (11742802_a_at) / RFU TPSAB1 /// TPSB2 (11721975_s_at) / Fold change /veh TPSAB1 /// TPSB2 (11721975_s_at) / RFU GSTM3 (11746129_a_at) / Fold change /veh GSTM3 (11746129_a_at) / RFU IL23R (11737362_x_at) / Fold change /veh IL23R (11737362_x_at) / RFU TMEM51 (11727254_a_at) / Fold change /veh TMEM51 (11727254_a_at) / RFU PIWIL2 (11732686_x_at) / Fold change /veh PIWIL2 (11732686_x_at) / RFU ORM1 (11744905_x_at) / Fold change /veh ORM1 (11744905_x_at) / RFU CCDC152 (11743942_at) / Fold change /veh CCDC152 (11743942_at) / RFU ECM1 (11717891_a_at) / Fold change /veh ECM1 (11717891_a_at) / RFU IL23R (11748794_a_at) / Fold change /veh IL23R (11748794_a_at) / RFU TNFAIP8L3 (11732012_x_at) / Fold change /veh TNFAIP8L3 (11732012_x_at) / RFU MBOAT4 (11741988_at) / Fold change /veh MBOAT4 (11741988_at) / RFU 11764193_at / Fold change /veh 11764193_at / RFU TMEM53 (11763286_at) / Fold change /veh TMEM53 (11763286_at) / RFU MAGEB2 (11727129_at) / Fold change /veh MAGEB2 (11727129_at) / RFU TMEM200A (11744735_a_at) / Fold change /veh TMEM200A (11744735_a_at) / RFU CCDC152 (11751479_a_at) / Fold change /veh CCDC152 (11751479_a_at) / RFU FAM211A (11726209_a_at) / Fold change /veh FAM211A (11726209_a_at) / RFU RGS16 (11746705_a_at) / Fold change /veh RGS16 (11746705_a_at) / RFU VCAN (11755009_s_at) / Fold change /veh VCAN (11755009_s_at) / RFU RHOB (11743442_s_at) / Fold change /veh RHOB (11743442_s_at) / RFU RGS16 (11720943_a_at) / Fold change /veh RGS16 (11720943_a_at) / RFU RGS16 (11720944_at) / Fold change /veh RGS16 (11720944_at) / RFU, VPS4B / Fold change vs veh, VPS4B / RFU, CREB1 / Fold change vs veh, CREB1 / RFU, DNAJC13 / Fold change vs veh, DNAJC13 / RFU, GNAQ / Fold change vs veh, GNAQ / RFU, CDK5R1 / Fold change vs veh, CDK5R1 / RFU, ZRANB3 / Fold change vs veh, ZRANB3 / RFU, CUL4A / Fold change vs veh, CUL4A / RFU, CCNY / Fold change vs veh, CCNY / RFU, UFL1 / Fold change vs veh, UFL1 / RFU, COG3 / Fold change vs veh, COG3 / RFU, DIAPH2 / Fold change vs veh, DIAPH2 / RFU, SKA2 / Fold change vs veh, SKA2 / RFU, AFF3 / Fold change vs veh, AFF3 / RFU, LMF1 / Fold change vs veh, LMF1 / RFU, IPO11 / Fold change vs veh, IPO11 / RFU, DFFB / Fold change vs veh, DFFB / RFU, FOXP1 / Fold change vs veh, FOXP1 / RFU, CARD8 / Fold change vs veh, CARD8 / RFU, STRN3 / Fold change vs veh, STRN3 / RFU, ADK / Fold change vs veh, ADK / RFU, RASSF2 / Fold change vs veh, RASSF2 / RFU, WIPF1 / Fold change vs veh, WIPF1 / RFU, LARP1B / Fold change vs veh, LARP1B / RFU, RASA1 / Fold change vs veh, RASA1 / RFU, RB1 / Fold change vs veh, RB1 / RFU, PPFIA1 / Fold change vs veh, PPFIA1 / RFU, MAT2A / Fold change vs veh, MAT2A / RFU, CCT5 / Fold change vs veh, CCT5 / RFU, WDR92 / Fold change vs veh, WDR92 / RFU, CUX1 / Fold change vs veh, CUX1 / RFU, TTC7A / Fold change vs veh, TTC7A / RFU, TMEM135 / Fold change vs veh, TMEM135 / RFU, DEPTOR / Fold change vs veh, DEPTOR / RFU, CPM / Fold change vs veh, CPM / RFU, DNAJB6 / Fold change vs veh, DNAJB6 / RFU, CACNA2D3 / Fold change vs veh, CACNA2D3 / RFU, DTX4 / Fold change vs veh, DTX4 / RFU, TFCP2 / Fold change vs veh, TFCP2 / RFU, GMCL1 /// GMCL1P1 / Fold change vs veh, GMCL1 /// GMCL1P1 / RFU, AEBP2 / Fold change vs veh, AEBP2 / RFU, SNHG1 /// SNORD22 /// SNORD25 /// SNORD26 /// SNORD27 /// SNORD28 /// SNORD29 /// SNORD31 / Fold change vs veh, SNHG1 /// SNORD22 /// SNORD25 /// SNORD26 /// SNORD27 /// SNORD28 /// SNORD29 /// SNORD31 / Fold change (Aza/veh), C12orf56 (ProbeSet 11735607_a_at) / Fold change (ACY-1035/veh), C12orf56 (ProbeSet 11735607_a_at) / Fold change (Aza/veh), FGFR1OP (ProbeSet 11751329_s_at) / Fold change (ACY-1035/veh), FGFR1OP (ProbeSet 11751329_s_at) / Fold change (Aza/veh), VPS36 (ProbeSet 11739960_a_at) / Fold change (ACY-1035/veh), VPS36 (ProbeSet 11739960_a_at) / RFU SYPL1 (11715823_x_at) / Fold change /veh SYPL1 (11715823_x_at) / RFU IGFBP7 (11715501_s_at) / Fold change /veh IGFBP7 (11715501_s_at) / RFU REEP3 (11722064_at) / Fold change /veh REEP3 (11722064_at) / RFU IGLL1 (11728026_x_at) / Fold change /veh IGLL1 (11728026_x_at): dose or concentration left out as unconfirmed
# Details: ProbeSet 11719493_s_at; LIST B
smiles,measurement,value
Nc1ncn([C@@H]2O[C@H](CO)[C@@H](O)[C@H]2O)c(=O)n1 [azacitidine],"RFU, TAF9",607.12 RFU
